Experimental findings from US20250215029A1 (Recludix Pharma, Inc., priority 2022, published 2025) are described below.

As usually defined, the IC50 is the point on the concentration scale where inhibition reaches its midpoint.

The target of experiment [1] is T1, Recombinant STAT3 protein (STAT3 (G127-I722)) (Homo sapiens, UniProt P40763).
T1 construct: Recombinant STAT3 protein (STAT3 (G127-I722))
Kind of experiment: STAT3 Fluorescence Polarization (FP) Assay. The format is binding. Particulars: STAT3 (G127-I722) 25 nM, probe 5-FAM-GpYLPQTV-NH2 2 nM, 45-minute incubation; read-out: STAT3 (FP assay IC50 class). In short, it runs like this:
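Displacement of a 2 nM 5-FAM-labelled pY peptide (GpYLPQTV) from 25 nM recombinant STAT3 (G127-I722) was monitored by fluorescence polarization. Incubation lasted 45 min at room temperature in pH 7.4 HEPES buffer containing 1% DMSO.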
A general note: Fluorescence polarisation rises when a labelled molecule tumbles more slowly, as on binding a larger partner.

The target of experiment [2] is T2, Recombinant STAT6 protein (STAT6 (W123-T658)) (Homo sapiens, UniProt P42226).
T2 construct: Recombinant STAT6 protein (STAT6 (W123-T658))
T2 sequence (P42226 123-658): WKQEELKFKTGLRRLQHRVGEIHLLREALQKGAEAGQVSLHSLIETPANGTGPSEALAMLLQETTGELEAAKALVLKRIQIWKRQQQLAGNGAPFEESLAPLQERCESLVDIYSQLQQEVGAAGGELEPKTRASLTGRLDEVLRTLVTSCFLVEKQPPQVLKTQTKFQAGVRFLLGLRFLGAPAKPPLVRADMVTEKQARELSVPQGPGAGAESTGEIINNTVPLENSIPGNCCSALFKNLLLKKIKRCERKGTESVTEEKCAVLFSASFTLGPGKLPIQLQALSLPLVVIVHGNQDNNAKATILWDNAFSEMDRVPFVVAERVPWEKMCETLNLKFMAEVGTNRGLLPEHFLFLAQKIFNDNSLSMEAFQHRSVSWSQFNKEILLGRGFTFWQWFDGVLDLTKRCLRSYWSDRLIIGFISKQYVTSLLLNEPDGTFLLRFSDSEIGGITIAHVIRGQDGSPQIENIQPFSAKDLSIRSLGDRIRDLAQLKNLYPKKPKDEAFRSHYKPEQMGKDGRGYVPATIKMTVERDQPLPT
The experiment is described as follows: STAT6 Fluorescence Polarization (FP) Assay. It counts as binding. Conditions: STAT6 (W123-T658) 250 nM, probe 5-FAM-Ap[…]-NH2 2 nM, 45-minute incubation; read-out: STAT6 (FP assay IC50 class). In short, it runs like this: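 Displacement of a fluorescent phosphotyrosine peptide (2 nM) from 250 nM STAT6 (W123-T658) is measured by polarization after a 45-minute room-temperature incubation. Compounds are titrated serially at 1% DMSO, and IC50 values derive from regression of mP on log concentration.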

T1 sequence (P40763 127-722): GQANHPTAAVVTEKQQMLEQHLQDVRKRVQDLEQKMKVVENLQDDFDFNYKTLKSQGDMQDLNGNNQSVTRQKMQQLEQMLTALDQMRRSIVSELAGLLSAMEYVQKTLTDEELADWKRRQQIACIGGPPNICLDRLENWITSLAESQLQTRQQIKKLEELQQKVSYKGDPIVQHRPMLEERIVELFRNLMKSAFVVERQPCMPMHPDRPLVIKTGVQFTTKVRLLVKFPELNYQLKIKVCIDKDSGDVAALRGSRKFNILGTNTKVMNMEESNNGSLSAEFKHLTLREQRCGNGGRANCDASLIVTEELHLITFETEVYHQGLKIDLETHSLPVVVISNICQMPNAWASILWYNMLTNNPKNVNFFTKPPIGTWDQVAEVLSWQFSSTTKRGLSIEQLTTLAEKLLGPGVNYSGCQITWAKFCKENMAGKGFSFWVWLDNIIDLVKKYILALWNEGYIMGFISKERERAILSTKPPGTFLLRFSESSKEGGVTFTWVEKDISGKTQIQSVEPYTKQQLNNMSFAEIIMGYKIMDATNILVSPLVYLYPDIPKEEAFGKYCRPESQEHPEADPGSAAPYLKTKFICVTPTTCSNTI

`Cn1cc(F)c(N2C(=O)N(C(=O)[C@@H]3CC[C@@H]4CCCC[C@H](NC(=O)c5cc6cc(C(F)P(=O)(O)O)ccc6s5)C(=O)N43)C3(CC3)C2=O)cc1=O` (stereo partly drawn) [Compound 581, (fluoro(2-(((3S,6S,10aS)-3-(6-(5-fluoro-1-methyl-2-oxo-1,2-dihydropyridin-4-yl)-5,7-dioxo-4,6-diazaspiro[2.4]heptane-4-carbonyl)-5-oxodecahydropyrrolo[1,2-a]azocin-6-yl)carbamoyl)benzo[b]thiophen-5-yl)methyl)phosphonic acid]: the IC50 was in the range of 1 to 10 µM in experiment [1] and 0.3 to 3 µM in experiment [2].

With `O=C(N[C@H]1CCC[C@H]2CC[C@@H](C(=O)N3CCC(c4ncncc4F)CC3)N2C1=O)c1cc2cc(C(F)P(=O)(O)O)ccc2s1` (stereo partly drawn) [Compound 582, (fluoro(2-(((3S,6S,9aS)-3-(4-(5-fluoropyrimidin-4-yl)piperidine-1-carbonyl)-5-oxooctahydro-1H-pyrrolo[1,2-a]azepin-6-yl)carbamoyl)benzo[b]thiophen-5-yl)methyl)phosphonic acid], the IC50 is 1 to 10 µM in experiment [1] and 3 to 30 µM in experiment [2].

Consider `O=C(N[C@H]1CCC[C@H]2CC[C@@H](C(=O)N3CC(c4ncncc4F)C3)N2C1=O)c1cc2cc(C(F)P(=O)(O)O)ccc2s1` (stereo partly drawn) [Compound 583, (fluoro(2-(((3S,6S,9aS)-3-(3-(5-fluoropyrimidin-4-yl)azetidine-1-carbonyl)-5-oxooctahydro-1H-pyrrolo[1,2-a]azepin-6-yl)carbamoyl)benzo[b]thiophen-5-yl)methyl)phosphonic acid], for which the IC50 is 0.1 to 1 µM in experiment [1] and 3 to 30 µM in experiment [2].

For the compound `Cn1ccc(=O)c(C2CN(C(=O)[C@@H]3CC[C@@H]4CCC[C@H](NC(=O)c5cc6cc(CP(=O)(O)O)ccc6s5)C(=O)N43)C2)c1` [Compound 584, ((2-(((3S,6S,9aS)-3-(3-(1-methyl-4-oxo-1,4-dihydropyridin-3-yl)azetidine-1-carbonyl)-5-oxooctahydro-1H-pyrrolo[1,2-a]azepin-6-yl)carbamoyl)benzo[b]thiophen-5-yl)methyl)phosphonic acid], the IC50 in experiment [1] was 1 to 10 µM; in experiment [2], 3 to 30 µM.

For the compound `C[C@H]1CC[C@H](NC(=O)c2cc3cc(CP(=O)(O)O)ccc3s2)C(=O)N2[C@H](CC[C@H]2C(=O)N2CC(c3cnccc3F)C2)C1` [Compound 585, ((2-(((3S,6S,9S,10aR)-3-(3-(4-fluoropyridin-3-yl)azetidine-1-carbonyl)-9-methyl-5-oxodecahydropyrrolo[1,2-a]azocin-6-yl)carbamoyl)benzo[b]thiophen-5-yl)methyl)phosphonic acid], the IC50 in experiment [1] is less than 0.1 µM; in experiment [2], 3 to 30 µM.

Turning to `CC(C)n1ccc(N2C(=O)N(C(=O)[C@@H]3CC[C@@H]4CCCC[C@H](NC(=O)c5cc6cc(C(F)P(=O)(O)O)ccc6s5)C(=O)N43)C3(CC3)C2=O)cc1=O` (stereo partly drawn) [Compound 586, (fluoro(2-(((3S,6S,10aS)-3-(6-(1-isopropyl-2-oxo-1,2-dihydropyridin-4-yl)-5,7-dioxo-4,6-diazaspiro[2.4]heptane-4-carbonyl)-5-oxodecahydropyrrolo[1,2-a]azocin-6-yl)carbamoyl)benzo[b]thiophen-5-yl)methyl)phosphonic acid], the IC50 in experiment [1] lay within 1 to 10 µM; in experiment [2], 0.3 to 3 µM.

Turning to `O=C(N[C@H]1CCCC[C@H]2CC[C@@H](C(=O)N3CCC(c4n[nH]cc4F)CC3)N2C1=O)c1cc2cc(C(F)P(=O)(O)O)ccc2s1` (stereo partly drawn) [Compound 587, (fluoro(2-(((3S,6S,10aS)-3-(4-(4-fluoro-1H-pyrazol-3-yl)piperidine-1-carbonyl)-5-oxodecahydropyrrolo[1,2-a]azocin-6-yl)carbamoyl)benzo[b]thiophen-5-yl)methyl)phosphonic acid], the values for the IC50 in experiment [1] and in experiment [2] were 1 to 10 µM and 3 to 30 µM, respectively.
